Source: patent US11795195B2, “Antibody-drug conjugates including hemiasterlin derivative” (Sumitomo Pharma Co., Ltd., priority 2017, dated 2023)

How the values were obtained:
[1] = tested on: Karpas-299 cells; assay: Cellular Toxicity Test (1), CellTiter-Glo cell viability; type: cell-based, human; settings: Homo sapiens, 96 h, cultured 4 days, cell viability
Experimental: Karpas-299 cells (European Collection of Authenticated Cell Cultures, hereinafter, ECACC), which are human lymphoma cell lines, were cultured in RPMI 1640 (GIBCO) containing 10% fetal bovine serum (MP Biomedicals) (hereinafter, referred to as the “culture medium”). Cells were prepared to be 2×10^6 cells/mL in the culture medium, and were added to a 96 well microplate for cell culturing in an amount of 50 μL for each well. Compounds of Examples or Comparative Example compound 4 times diluted with the culture medium in 8 stages were added to the microplate in an amount of 50 μL for each well. These were cultured at 37 degree under 5% CO2 for 4 days. After culturing, the microplate was taken out from the incubator, and was left at rest at room temperature for 10 minutes. To each well, 50 μL of CellTiter-Glo Luminescent Cell Viability Assay (Promega) was added, and the resultant mixture was stirred. This mixture was incubated at a dark place for 20 minutes. Using a microplate luminometer, luminescence at each well was measured, thereby calculating the cell viability. In addition, from the value of cell viability, the IC50 value was calculated.
The IC50 value was calculated by the following formula: IC50 (nM)=antilog(LOG10(a/b)×(e−d)/(c−d)+LOG10b) a: concentration a of test substance b: concentration b of test substance c: cell viability upon adding test substance with concentration a d: cell viability upon adding test substance with concentration b e: intermediate value between maximum and minimum among cell viabilities upon adding test substances with different concentrations (a and b are concentrations crossing the cell viability e, and a>b is indicated).
The cell viability at each concentration was calculated by the following formula: Cell Viability (%)=a′/b′×100 a′: mean value of luminescence amount of wells to which test substance was added (n=6) b′: mean value of luminescence amount of wells to which test substance was not added (n=6) (n represents the number of evaluations performed per test substance concentration).

[2] = Membrane Permeability Test, parallel artificial membrane permeability assay (PAMPA); type: in vitro ADME; settings: pH 7.4, pH7.4, 37° C., read-out: Pe (pH7.4)
Experimental: By the parallel artificial membrane permeability assay (PAMPA), the membrane permeability of compounds of Examples was examined as follows: To the donor plate, System solution (pION inc.) and GIT Lipid-0 (pION inc.) were added in an amount of 200 μL and 4 μL for each well, respectively. To the acceptor plate, Acceptor Sink Buffer (pION inc.) was added in an amount of 200 μL. Both plates were superposed and incubated at 37° C. for 4 hours, and then, UVs in the solutions on the side of acceptor and on the side of donor were measured with an UV plate reader (190 to 500 nm). Compounds with poor UV absorption were measured by LC-MS. The permeability coefficient Pe (10^−6 cm/sec) of the drug was calculated by the following formula.
[formula] • ra=(VD/VA)Pa^(A-D)/Pa^(D-A)=rVPe^(A-D)/Pa^(D-A) • rV=(VD/VA) • VD=volume of doner well • VA=volume of acceptor well • t=permeation time • τ^SS=steady state time • R=retention • CD=CA=concentration in donor and acceptor well

Compound	IC50 [1] [nM]	Papp at 4 h [2] [×10⁻⁶ cm/s]
CN[C@H](C(=O)N[C@H](C(=O)N(C)[C@H](/C=C(\C)C(=O)N[C@H](CCC(=O)N[C@@H](CCCCNC(=O)CCCCCN1C(=O)C=CC1=O)C(=O)O)C(=O)O)C(C)C)C(C)(C)C)C(C)(C)c1cn(C)c2ccccc12 [Example M2, N-{(2E,4S)-2,5-Dimethyl-4-[methyl(N,β,β,1-tetramethyl-L-tryptophyl-3-methyl-L-valyl)amino]hex-2-enoyl}-D-γ-glutamyl-N^6-[6-(2,5-dioxo-2,5-dihydro-1H-pyrrol-1-yl)hexanoyl]-L-lysine]	780	< 0.1
CN[C@H](C(=O)N[C@H](C(=O)N(C)[C@H](/C=C(\C)C(=O)N[C@H](CC(=O)NCCN1C(=O)C=CC1=O)C(=O)O)C(C)C)C(C)(C)C)C(C)(C)c1ccccc1 [Example M9]	576	< 0.1
CN[C@H](C(=O)N[C@H](C(=O)N(C)[C@H](/C=C(\C)C(=O)N[C@@H](CC(=O)NCCN1C(=O)C=CC1=O)C(=O)O)C(C)C)C(C)(C)C)C(C)(C)c1ccccc1 [Example M10]	544	< 0.1
CN[C@H](C(=O)N[C@H](C(=O)N(C)[C@H](/C=C(\C)C(=O)N[C@@H](CCC(=O)NCCN1C(=O)C=CC1=O)C(=O)O)C(C)C)C(C)(C)C)C(C)(C)c1ccccc1 [Example M11]	> 1000	< 0.1
CN[C@H](C(=O)N[C@H](C(=O)N(C)[C@H](/C=C(\C)C(=O)N[C@@H](CCC(=O)O)C(=O)NCCN1C(=O)C=CC1=O)C(C)C)C(C)(C)C)C(C)(C)c1ccccc1 [Example M12]	29.8	< 0.1
CN[C@H](C(=O)N[C@H](C(=O)N(C)[C@H](/C=C(\C)C(=O)N[C@H](CC(=O)O)C(=O)NCCN1C(=O)C=CC1=O)C(C)C)C(C)(C)C)C(C)(C)c1ccccc1 [Example M13]	999	–
CN[C@H](C(=O)N[C@H](C(=O)N(C)[C@H](/C=C(\C)C(=O)N[C@@H](CC(=O)O)C(=O)NCCN1C(=O)C=CC1=O)C(C)C)C(C)(C)C)C(C)(C)c1ccccc1 [Example M14]	> 1000	–
CN[C@H](C(=O)N[C@H](C(=O)N(C)[C@H](/C=C(\C)C(=O)N[C@H](CCC(=O)O)C(=O)NCCN1C(=O)C=CC1=O)C(C)C)C(C)(C)C)C(C)(C)c1ccccc1 [Example M15]	> 1000	–
CN[C@H](C(=O)N[C@H](C(=O)N(C)[C@H](/C=C(\C)C(=O)N[C@H](CCC(=O)NCCCN1C(=O)C=CC1=O)C(=O)O)C(C)C)C(C)(C)C)C(C)(C)c1ccccc1 [Example M16]	573	–
CN[C@H](C(=O)N[C@H](C(=O)N(C)[C@H](/C=C(\C)C(=O)N[C@H](CCC(=O)NCCCCN1C(=O)C=CC1=O)C(=O)O)C(C)C)C(C)(C)C)C(C)(C)c1ccccc1 [Example M17]	35	< 0.1
CN[C@H](C(=O)N[C@H](C(=O)N(C)[C@H](/C=C(\C)C(=O)N[C@@H](CCC(=O)NCCN1C(=O)C=CC1=O)C(=O)O)C(C)C)C(C)(C)C)C(C)(C)c1cn(C)c2ccccc12 [Example M18]	148	< 0.1
CN[C@H](C(=O)N[C@H](C(=O)N(C)[C@H](/C=C(\C)C(=O)N[C@@H](CC(=O)NCCN1C(=O)C=CC1=O)C(=O)O)C(C)C)C(C)(C)C)C(C)(C)c1cn(C)c2ccccc12 [Example M19]	169	< 0.1
CN[C@H](C(=O)N[C@H](C(=O)N(C)[C@H](/C=C(\C)C(=O)N[C@H](CC(=O)NCCN1C(=O)C=CC1=O)C(=O)O)C(C)C)C(C)(C)C)C(C)(C)c1cn(C)c2ccccc12 [Example M20]	406	< 0.1
CN[C@H](C(=O)N[C@H](C(=O)N(C)[C@H](/C=C(\C)C(=O)N[C@@H](CC(=O)O)C(=O)NCCN1C(=O)C=CC1=O)C(C)C)C(C)(C)C)C(C)(C)c1cn(C)c2ccccc12 [Example M21]	226	< 0.1
CN[C@H](C(=O)N[C@H](C(=O)N(C)[C@H](/C=C(\C)C(=O)N[C@@H](CCC(=O)O)C(=O)NCCN1C(=O)C=CC1=O)C(C)C)C(C)(C)C)C(C)(C)c1cn(C)c2ccccc12 [Example M22]	154	< 0.1
CN[C@H](C(=O)N[C@H](C(=O)N(C)[C@H](/C=C(\C)C(=O)N[C@H](CCC(=O)NCCCN1C(=O)C=CC1=O)C(=O)O)C(C)C)C(C)(C)C)C(C)(C)c1cn(C)c2ccccc12 [Example M23]	49.7	< 0.1
CN[C@H](C(=O)N[C@H](C(=O)N(C)[C@H](/C=C(\C)C(=O)N[C@H](CC(=O)O)C(=O)NCCN1C(=O)C=CC1=O)C(C)C)C(C)(C)C)C(C)(C)c1cn(C)c2ccccc12 [Example M24]	166	< 0.1
CN[C@H](C(=O)N[C@H](C(=O)N(C)[C@H](/C=C(\C)C(=O)N[C@H](CCC(=O)O)C(=O)NCCN1C(=O)C=CC1=O)C(C)C)C(C)(C)C)C(C)(C)c1cn(C)c2ccccc12 [Example M25]	140	< 0.1
CN[C@H](C(=O)N[C@H](C(=O)N(C)[C@H](/C=C(\C)C(=O)N[C@H](CCC(=O)N[C@@H](CCCCNC(=O)CCN1C(=O)C=CC1=O)C(=O)O)C(=O)O)C(C)C)C(C)(C)C)C(C)(C)c1cn(C)c2ccc(F)cc12 [Example M26]	80.1	< 0.1
CN[C@H](C(=O)N[C@H](C(=O)N(C)[C@H](/C=C(\C)C(=O)N[C@@H](CCCCNC(=O)CCCN1C(=O)C=CC1=O)C(=O)O)C(C)C)C(C)(C)C)C(C)(C)c1cn(C)c2ccccc12 [Example M27]	192	< 0.1
CN[C@H](C(=O)N[C@H](C(=O)N(C)[C@H](/C=C(\C)C(=O)NCCCC[C@@H](NC(=O)CCCN1C(=O)C=CC1=O)C(=O)O)C(C)C)C(C)(C)C)C(C)(C)c1ccccc1 [Example M28]	50.8	< 0.1
C/C(=C\[C@H](C(C)C)N(C)C(=O)[C@@H](NC(=O)[C@H]1CCCCN1C(=O)CCN1C(=O)C=CC1=O)C(C)(C)C)C(=O)N[C@H](CCC(=O)O)C(=O)O [Example M29]	> 1000	< 0.1
CNC(C(=O)N[C@H](C(=O)N(C)[C@H](/C=C(\C)C(=O)N[C@H](CCC(=O)O)C(=O)O)C(C)C)C(C)(C)C)C(C)(C)c1ccc(OC(=O)CCN2C(=O)C=CC2=O)cc1 (stereo partly drawn) [Example M30]	–	< 0.1
CN[C@H](C(=O)N[C@H](C(=O)N(C)[C@H](/C=C(\C)C(=O)N[C@H](CCC(=O)NCCN1C(=O)C=CC1=O)C(=O)O)C(C)C)C(C)(C)C)C(C)(C)c1cccc(C(F)(F)F)c1 [Example M31]	197	1
CN[C@H](C(=O)N[C@H](C(=O)N(C)[C@H](/C=C(\C)C(=O)N[C@H](CCC(=O)NCCN1C(=O)C=CC1=O)C(=O)O)C(C)C)C(C)(C)C)C(C)(C)c1cccc(F)c1 [Example M32]	616	0.6
CN[C@H](C(=O)N[C@H](C(=O)N(C)[C@H](/C=C(\C)C(=O)N[C@H](CCC(=O)NCCN1C(=O)C=CC1=O)C(=O)O)C(C)C)C(C)(C)C)C(C)(C)C1CCCCC1 [Example M33]	228	< 0.1
C/C(=C\[C@H](C(C)C)N(C)C(=O)[C@@H](NC(=O)[C@@H](N(C)C)C(C)(C)c1ccccc1)C(C)(C)C)C(=O)N[C@H](CCC(=O)NCCN1C(=O)C=CC1=O)C(=O)O [Example M49, N^2—((S,E)-4-((S)-2-((S)-2-(Dimethylamino)-3-methyl-3-phenylbutanamido)-N,3,3-trimethylbutanamido)-2,5-dimethylhex-2-enoyl)-N^5-(2-(2,5-dioxo-2,5-dihydro-1H-pyrrolo-1-yl)ethyl)-D-glutamine]	> 1000	–
